Laboratory results reported in US10517920B2, “Antibacterial peptide and method of treatment using the antibacterial peptide” (United Arab Emirates University, priority 2011, dated 2019).
Where no end group is shown, it is not given here.

Test system: Gram-positive and Gram-negative bacteria
Test: In vitro disc diffusion of identified amino acid sequences
Assay type: cell-based
Experimental: Each amino acid sequence identified in each of samples 1, sample 2 and sample 3, were checked for antibacterial activity using the invitro disc diffusion method of Murray P R et al; 1995 (Murray P R, Baron E J, Pfaller M A, Tenover F C, Yolke R H. (1995). Manual of Clinical Microbiology, ASM, Washington, D.C. 6th edition.)
The amino acid sequences were also compared to an Ampicillin standard of 10 μg/mL

| Sequence | Antibacterial activity of amino acid sequences | Antibacterial activity compared with the standard drug ampicillin |
| --- | --- | --- |
| KRGRLIWRVWRGIW [SEQ ID NO: 4, antibacterial peptide from the <10 kDa fraction of date pits degraded by solid state degradation] | maximum anti-bacterial activity | comparable to the standard drug ampicillin |
| RQWISRWTWQR [SEQ ID NO:6, antibacterial peptide from the <10 kDa fraction of date pits degraded by solid state degradation] | maximum anti-bacterial activity | comparable to the standard drug ampicillin |
